Patent US10328062B2, “Biomarkers and use of MET inhibitor for treatment of cancer” (AMGEN, INC., priority 2014, dated 2019)
Where two headings read alike, the source gives them in different places.

Experiments:
[1] = Phase 1 Study 20101132 preliminary PK analysis; conditions: human, in vivo
Procedure: Safety is assessed according to Common Terminology Criteria for Adverse Events (CTCAE) v4.0 criteria and the DLT (dose limiting toxicity) window is 28 days. Dose escalation is proceeding with a modified 3+3+3 design, which defines the MTD (maximum tolerated dose) to have been exceeded when ≥3 subjects in a cohort experience a DLT.
Dose escalation consists of up to 8 cohorts of 3 to 9 evaluable subjects each. Initially, up to 4 subjects may enroll into a cohort. […] At least 6 subjects will be treated at the MTD. An expansion cohort of up to 20 subjects at the MTD (determined in the dose escalation portion) will be considered to obtain further safety, PK, and efficacy data.

[2] = tested on: MET amplified SNU5 gastric cancer tumor xenograft; experiment: SNU5 gastric cancer tumor xenograft model; format: in vivo, athymic nude mice; conditions: 0.3, 1, 3 and 10 mg/kg oral gavage once daily
Procedure: Animals. Female athymic nude mice 6 weeks of age were obtained from Harlan Laboratories (Indianapolis, Ind.). Animals were housed in sterilized caging and received Harlan Teklad autoclavable or irradiated rodent diet and water ad libitum. All of the procedures were conducted as described in an animal care and use protocol approved by Amgen's Institutional Animal Care and Use Committee. The program of animal care is fully accredited by the Association for Assessment and Accreditation of Laboratory Animal Care International.
Xenograft Studies. MKN45 (3×106 with Matrigel at a ratio of 2:1), SNU-5 (5×106 with Matrigel at a ratio of 2:1) cells were injected subcutaneously in the right flank of female athymic nude mice (n=10 per group). […] All mice were dosed by oral gavage once daily. Tumor volume was measured twice weekly with a Pro-Max Fowler Digital Ultra Caliper (Fred Fowler Co., Inc.) as length (mm)×width (mm)×height (mm) and expressed as cubic millimeters. Data are expressed as mean±standard error for each group and plotted as a function of time. The statistical significance of observed differences between growth curves was evaluated by repeated measures ANOVA followed by Dunnett's post hoc test.
Tumor volumes were measured twice weekly until the conclusion of the study.

MKN-45 cells = experiment: Immunoblot analysis of apoptotic markers; format: cell-based, Human; conditions: 30 nM, 24 hours
Procedure: (§1) Cells were seeded in 10 cm dishes at varying densities and allowed to adhere by incubating at 37° C. and 5% CO2 overnight. […] Cells were harvested in 250 μL lysis buffer containing protease and phosphatase inhibitors. For suspension cell lines, cells were pelleted prior to lysis buffer addition. Protein concentrations for individual lysates were measured using a BCA protein assay. 25 μg of protein lysate per sample was resolved on Life Technologies (Carlsbad, Calif.) NuPAGE Bis-Tris gels per manufacturer's. Samples were transferred to nitrocellulose membranes for Western blot analysis. Membranes were blocked in 5% milk prepared in TBST for 1 hour at room temperature. Total and phospho-specific antibodies for specified endpoints were used at 1:1000 dilutions in 5% milk/TBST (total) or 5% BSA/TBST (phospho). Membranes were incubated in the presence of appropriate primary antibody overnight at 4° C. Secondary anti-species-IgG HRP conjugated antibodies were diluted 1:5000 in 5% milk/TBST and incubated in the presence of membranes for 1 hour at room temperature. Membranes were exposed to Thermo Scientific (Waltham, Mass.) Super Signal PICO West ECL detection reagent per manufacturer's recommended protocol and exposed to film to document signal.
(§2) Antibodies detecting total and phospho-MET (Y1234/1235), phospho-Gab1 (Y627), total and phospho-AKT (S473), total and phospho-ERK (T202/Y204), cleaved caspase-3, and cleaved PARP were purchased from Cell Signaling Technologies (Beverly, Mass.). The total β-actin antibody was purchased from Thermo Scientific (Waltham, Mass.). Both secondary anti-rabbit and anti-mouse IgG-HRP conjugated antibodies were purchased from Thermo Scientific (Waltham, Mass.).
(§3) Flow cytometry cell cycle analysis of MET amplified gastric cancer cell line MKN-45 is represented in FIG. 6. […] BrdU labeling was performed during the final 2 hours of compound treatment. […] Cells were then analyzed by flow cytometry to document effects on the cell cycle. […] Subsequent lysates were analyzed by SDS-PAGE and immunoblot using antibodies detecting cleaved PARP, cleaved caspase-3 and β-actin.

SNU-5 cells = experiment: Immunoblot analysis of apoptotic markers; format: cell-based, Human; conditions: 30 nM, 24 hours
Procedure: as §1, §2, §3

SNU-620 cells = experiment: Immunoblot analysis of apoptotic markers; format: cell-based, Human; conditions: 30 nM, 24 hours
Procedure: as §1, §2, §3

SNU-620 = experiment: 72 hour cancer cell line viability assay (CellTiter-Glo); format: cell-based, Human
Procedure: (§4) Human cancer cell lines were purchased from ATCC, JCRB, Sigma Aldrich or DSMZ. All cell lines were propagated in growth media per the suppliers' recommendation and maintained in 5% CO2 and 37° C.
(§5) Cancer cell line viability assays were carried out using the CellTiter-Glo Luminescent Cell Viability Assay from Promega (Madison, Wis.). Optimal cell seeding densities were determined using time lapse imaging to maximize signal window and ensure cells were not contact growth inhibited at the 72 hour time point. Cells were seeded in 96 well plates in complete growth media and allowed to adhere to the bottom of the plate by incubation at 37° C. and 5% CO2 overnight. […] Plates were incubated at 37° C. and 5% CO2 for 72 hours. Treated plates were then allowed to equilibrate to room temperature along with, CellTiter-Glo substrate and buffer solution prior to use in the viability assay. CellTiter-Glo substrate vials were reconstituted in 10 mL of buffer solution and added to assay plates in 100 μL/well volumes. Plates were shaken for 2 minutes at 700 rotations per minute with an orbit diameter of 3 mm followed by room temperature incubation for 10 minutes. Plates were then read using an Envision plate reader on luminescent setting.
(§6) To calculate growth inhibition effects (0-200% scale), time zero vehicle treated wells (V0), were read at the time of compound addition for each cell line.
(§7) Threshold for high vs low MET copy number was set at aCGH log 2 ratio of 2.5. Focal nature of MET copy number increase was defined qualitatively using tiled aCGH results for chromosome 7.
(§8) Percent growth inhibition is reported on a 0-200% scale where 0% is equivalent to no effect (time 72 hour control), 100% is equivalent to stasis (time 0 hour control) and 200% is equivalent to complete cell death.

SNU-5 = experiment: as above; format: cell-based, Human
Procedure: as §4, §5, §6, §7, §8

## COCCOc1cnc2ccn([C@H](C)c3nnc4c(F)cc(-c5cnn(C)c5)cn34)c(=O)c2c1 [Compound M, 6-{(1R)-1-[8-fluoro-6-(1-methyl-1H-pyrazol-4-yl)[1,2,4]triazolo[4,3-a]pyridin-3-yl]ethyl}-3-(2-methoxyethoxy)-1,6-naphthyridin-5(6H)-one]
[1]; oral, 43 subjects, once daily doses of 25 to 400 mg, tablet formulation, read-out: mean estimates of T1/2,z
  half-life: 4.6 to 7.4 h
[1]; oral, cohort 3 (100 mg) after 28 days of dosing, read-out: human mean trough concentration
  concentration at 28 days: 131 ng/mL
[1]; 24 subjects, daily oral doses of up to 200 mg, as of 20 Aug. 2012, read-out: Mean estimates of elimination half-life
  half-life: 4.6 to 6.9 h
[2]
  anti-tumor efficacy: robust dose dependent anti-tumor efficacy
MKN-45 cells
  cleaved PARP and cleaved caspase-3 levels: No induction of cleaved PARP or cleaved caspase-3
SNU-5 cells
  cleaved PARP and cleaved caspase-3 levels: clear induction of both cleaved PARP and cleaved caspase-3
SNU-620 cells
  cleaved PARP and cleaved caspase-3 levels: elevated cleaved PARP and cleaved caspase-3 levels
SNU-620; Homo sapiens, SNU620, 72 h
  IC50: 14 nM
SNU-620; SNU-620, 72 hour, 0-200% growth inhibition scale
  viability response type: evidence of cell death
SNU-5; Homo sapiens, SNU-5, 72 h
  IC50: 3 nM
SNU-5; SNU-5, 72 hour, 0-200% growth inhibition scale
  viability response type: evidence of cell death
